≈ marks a conversion by molar mass, not a printed value.
Key:
[1] = Solubility; format: physicochemical
From the text: Supplement 41598_2023_30246_MOESM1_ESM.docx, table 2: Supplementary Table S2. In vitro ADME parameters of JBI-589 | column: 90

[2] = Microsomal stability, HLM; format: in vitro ADME, human; details: 1 µM, liver microsomes 0.5 mg/mL; one range given for HLM/MLM/DLM/RLM
Experimental: (§1) Microsomal stability: Liver microsomes (0.5 mg/mL) from different species were incubated with JBI-589 (1 µM) with or without NADPH (1 mM) at 37 °C for 30 min in potassium phosphate buffer (pH 7.4) and then reaction was stopped with quenching solution (0.5% Formic acid in internal standard (IS) containing ACN). Resulting samples were centrifuged and supernatant was taken for LC–MS/MS analysis. Percent metabolism was calculated as follows: % Metabolized: [1 − (test area ratio/control area ratio)] *100.

[3] = Microsomal stability, MLM; format: in vitro ADME, mouse; details: 1 µM, liver microsomes 0.5 mg/mL; one range given for HLM/MLM/DLM/RLM
Experimental: as §1

[4] = Mice PK study; format: in vivo, Balb/c mice
From the text: Institutional Animal Ethical Committee (IAEC) of Jubilant Biosys Ltd (IAEC/JDC/2019/188R (for Mice) nominated by CPCSEA (Committee for the Purpose of Control and Supervision of Experiments on Animals) approved the mice pharmacokinetic experiments. Male Balb/c mice (~ 6–8 weeks old with body weight range of 22–25 g) were procured from Vivo Biotech, Hyderabad, India. Rodent feed (manufactured by Altromin Spezialfutter GmbH & Co. KG., ImSeelenkamp20, D-32791 Lage), and water was provided ad libitum. Intravenous (IV) and oral (PO) pharmacokinetics studies were done at doses of 2 mg/Kg and 10 mg/Kg, respectively at a dose volume of 10 mL/Kg. Sparse sampling was done with three mice at each time point. Blood (~ 100 µL) was collected from retro-orbital plexus at 0.12, 0.25, 0.5, 1, 2, 4, 8 and 24 h for IV and 0.25, 0.5, 1, 2, 4, 8, 10 and 24 h for PO route, in tubes containing K2 and EDTA as anticoagulant. It was centrifuged for 5 min at 10,000 rpm in a refrigerated centrifuge (Biofuge, Heraeus, Germany) maintained at 4 °C for plasma separation. For oral dosing of JBI-589 suspension formulation was prepared using 0.5% Tween-80 and 0.5% methyl cellulose (0.5% in water), while for IV dosing 5% DMSO, 5% Solutol:ethanol (1:1, v/v) and 90% normal saline was used.

[5] = test system: mouse neutrophils; assay: NET formation assay on neutrophils isolated from orally dosed mice; format: in vivo; details: 50 mg/kg orally for seven consecutive days
Experimental: To determine the effects of JBI-589 on NET formation, an in vitro NET assay was performed. In mouse neutrophils, ionomycin stimulation induced more than 90% of H4Cit-positivity and NET formation in approximately 15% of neutrophils. […] To evaluate the in vivo effects, JBI-589 at 50 mg/kg or vehicle (water) was orally administered twice daily for seven consecutive days. Four hours after the last administration, mouse neutrophils were isolated, and then a NET formation assay was performed.
Mouse peripheral blood was collected by retro-orbital puncture in ethylenediaminetetraacetic acid (EDTA) anticoagulated buffer supplemented with 1% endotoxin-free BSA in sterile PBS. Neutrophils were isolated by Percoll gradient centrifugation as described previously. The purity of neutrophils was more than 90% as confirmed by the Wright-Giemsa stain.
Mouse or human neutrophils were resuspended in HEPES-supplemented phenol red-free RPMI1640 medium and 1.5 × 10^4 cells were seeded per well in a 96-well plate. After incubating for 20 min at 37 °C and 5% CO2, the cells were stimulated with vehicle control or ionomycin (Sigma, Catalog No: I24222) (4 µM) for 4 h. Neutrophils were fixed with 4% paraformaldehyde (PFA), washed and permeabilized (0.1% Triton X-100, 0.1% sodium citrate) for 10 min at 4 °C. Subsequently, neutrophils were incubated with blocking buffer (2.5% BSA, 0.5% Tween-20 in 1 × PBS) at room temperature for an hour followed by overnight incubation with the primary antibody against citrullinated histone H4 (H4Cit, 1:250, catalog number: 07-596, Millipore, Burlington, MA). After washing 3 times with PBS, neutrophils were incubated with Hoechst 33342 (1:10,000, catalog number: H3570, Invitrogen). Images were obtained with a Zeiss Axiovert 200 M wide-field fluorescence microscope (Zeiss, Oberkochen, Germany) with the Zeiss AxioVision software. The percentages of H4Cit positive neutrophils and neutrophil extracellular traps (NETs) were calculated by quantifying more than 200 randomly selected cells. […]

[6] = male, Balb/c, mouse, plasma, 2 mg/kg, IV
[7] = male, Balb/c, mouse, plasma, 10 mg/kg, PO
[8] = neutrophils isolated 4 h after last administration, ionomycin 4 µM

- solubility [1]: 90 µM (≈ 43.3 µg/mL)
- HLM % metabolized @ 30 min [2]: 25-50%
- MLM % metabolized @ 30 min [3]: 25-50%
- t1/2 ([4]; 10 mg/kg, PO): 6.3 h
- AUC(0-inf) [4, 6]: 4380 ng·h/mL
- AUC(0-t) [4, 6]: 3960 ng·h/mL
- C0 [4, 6]: 968 ng/mL
- Cmax [4, 6]: 828 ng/mL
- Vd [4, 6]: 5.24 L/kg
- clearance [4, 6]: 7.61 mL/min/kg
- half-life [4, 6]: 8 h
- AUC(0-inf) [4, 7]: 13500 ng·h/mL
- AUC(0-t) [4, 7]: 12500 ng·h/mL
- Cmax [4, 7]: 874 ng/mL
- bioavailability [4, 7]: 63%
Compound: Cc1c(-c2cc3ccccc3n2Cc2ccc(F)cc2)nc2cc(C(=O)N3CCC[C@@H](N)C3)ccn12 [JBI-589, (R)-(3-aminopiperidin-1-yl)(2-(1-(4-fluorobenzyl)-1H-indol-2-yl)-3-methylimidazo[1,2-a]pyridin-7-yl)methanone]
- H4Cit positivity compared with vehicle [5, 8]: reduced both H4Cit positivity and NET formation significantly
- NET formation compared with vehicle [5, 8]: reduced both H4Cit positivity and NET formation significantly
- percentage of H4Cit positive cells ([5]; vehicle 88%, p = 0.01): 83%
